Experimental data from patent US20100273722A1, “MODIFIED MINIATURE PROTEINS” (Yale University, priority 2007, published 2010).
No end group written: not given here.

Key:
[1] = Temperature-dependent sedimentation equilibrium of aPP^Y7AP13SV14P, monomer-dimer-tetramer fit; format: physicochemical; conditions: for % monomer: at 30 micromolar total peptide concentration; for ln KA (m): m fixed to 4 (tetramer), PBS
Method: aPP^Y7AP13SV14P samples were prepared in Dulbecco's PBS buffer (as described above) at concentrations of 45, 90, and 180 micromolar. Sedimentation equilibrium experiments were performed as described above and monitored at 280 nm. Samples were centrifuged to equilibrium at three speeds (42,000, 50,000, and 60,000 rpm) at 5, 10, 15, 20, 25, and 30° C. The rotor containing the samples was agitated manually between temperature runs to redistribute the sample along the length of the cell and checked by an initial scan.
The sedimentation data obtained for aPP^Y7AP13SV14P at each temperature was globally fit to Eq. 2 as described above. […] Therefore, the data from within each temperature set was then globally fit to a monomer-n-mer-m-mer model. Based on the self-association trends of the other aPP variants, in which the folded peptides best fit to a monomer-dimer model and the unfolded peptides fit to a monomer-tetramer model, the values for n and m were fixed to 2 and 4 respectively. Data fit with these parameters and the resulting residuals are presented in FIG. 5 and a summary of the fitted parameter results are given in Table 3. […] Samples were prepared in PBS buffer (90 micromolar) and centrifuged to equilibrium at speeds of 42,000 (51), 50,000 (52), and 60,000 (53) rpm.

[2] = Circular dichroism (wavelength- and temperature-dependent) of aPP variants, Example 1; format: physicochemical; conditions: 30 micromolar
Method: The CD spectra of each peptide (30 micromolar) were acquired in Tris buffer (25 mM Tris base, 50 mM NaCl, (pH 8.0)) at 25° C. in a 2 mm cell. Samples were scanned between 200 and 260 nm, with signal sampling every 0.5 nm, and three successive scans were averaged. Molar residue ellipticity values were calculated from the equation MRE=(Θsample−Θbuffer)/(L×c×n×1000), where Θ is the observed signal in millidegrees, L is the length of the cuvette in cm, c is the concentration of peptide in dmol cm^−3 and n is the number of amino acids in the molecule.
Temperature-dependent CD spectra of aPP^Y7AP13SV14P (30 micromolar) were acquired in Dulbecco's PBS (1 mM KH2PO4, 155 mM NaCl, 3 mM Na2HPO4, (pH 7.4)) in a 2 mm cell. The signal at 222 nm (MRE222) was monitored between 1° C. and 80° C. using the variable temperature module provided with the instrument. Data were collected with a 0.5° C. data pitch, 5 s delay time, 20° C./hour temperature slope, 4 s response, and 1 nm bandwidth. CD spectra were obtained as the temperature was raised and when the temperature was lowered to establish the reversibility of the folding transition. Additionally, a full wavelength scan was obtained before and after the thermal melt; an overlay of the two spectra is shown in FIG. 3A. […] Mean residue ellipticity values for the temperature dependent CD spectrum were calculated from the equation MRE=Θ222 nm/(L×c×n×1000), where Θ is observed signal at 222 nm (mdeg), L is the length of, the cuvette (cm), c is the concentration of peptide (dmol/cm^3) and n is the number of amino acids in the molecule. The first derivatives of the temperature-dependent CD spectra are shown in FIG. 3B, which is a plot of δMRE222/δT (units of deg cm^2 dmol^−1 K^−1). The Tm value reported in the main text corresponds to the temperature at which ∂MRE222/∂T is a maximum.

[3] = molecular target: Hck SH3 domain-GST fusion protein (Homo sapiens, UniProt P08631); test: Fluorescence polarization direct binding assay, Hck SH3
Sequence of Hck SH3 domain-GST fusion protein (P08631 77-137): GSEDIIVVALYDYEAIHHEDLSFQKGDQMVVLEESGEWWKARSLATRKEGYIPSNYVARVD
Method: (§1) Polarization was measured by excitation with vertically polarized light at 485 nm and the fluorescence emission detected at 530 nm in both the vertical and horizontal directions. An average of five measurements were recorded for each well. Samples were equilibrated at room temperature for 25 min before analysis, a time sufficient for the binding reactions to reach equilibrium. The polarization data were fit using Kaleidagraph v3.6 software to Eq. 5, which is derived from first principles without assumptions. […] In this equation, Pobs is the observed polarization value at any given concentration of target protein (GST•SH3 domain). Pmin is the polarization of peptide^Flu at 50 nM in the absence of target protein. Pmax is the maximum polarization of peptide^Flu at saturation with target protein. Kd is the equilibrium dissociation constant. […] Free fits are shown. Kd values were estimated as described.

[4] = molecular target: c-Src SH3 domain-GST fusion protein (Gallus gallus, UniProt P00523); test: Fluorescence polarization direct binding assay, c-Src SH3; design: species or system chicken
Method: as §1

[5] = molecular target: Lck SH3 domain-GST fusion protein (Homo sapiens, UniProt P06239); test: Fluorescence polarization direct binding assay, Lck SH3
Sequence of Lck SH3 domain-GST fusion protein (P06239 62-128): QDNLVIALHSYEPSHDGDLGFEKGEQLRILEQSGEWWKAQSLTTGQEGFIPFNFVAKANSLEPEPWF
Method: (§2) Polarization was measured by excitation with vertically polarized light at 485 nm and the fluorescence emission detected at 530 nm in both the vertical and horizontal directions. An average of five measurements were recorded for each well. Samples were equilibrated at room temperature for 25 min before analysis, a time sufficient for the binding reactions to reach equilibrium. The polarization data were fit using Kaleidagraph v3.6 software to Eq. 5, which is derived from first principles without assumptions. […] In this equation, Pobs is the observed polarization value at any given concentration of target protein (GST•SH3 domain). Pmin is the polarization of peptide^Flu at 50 nM in the absence of target protein. Pmax is the maximum polarization of peptide^Flu at saturation with target protein. Kd is the equilibrium dissociation constant. […] In these cases a lower limit Kd was estimated by setting Pmax equal to the observed polarization at the highest target protein concentration tested, which was often limited by solubility. […] Free fits are shown. Kd values were estimated as described. […] In several cases, the plots of polarization versus [SH3 domain] began to increase at high [SH3 domain] (>50 micromolar), perhaps because of a second binding event. In these cases (indicated by an asterisk (*) in Table 5), data above 50 micromolar target protein was excluded during the curve fits.

[6] = molecular target: Lyn SH3 domain-GST fusion protein (Homo sapiens, UniProt P07948); test: Fluorescence polarization direct binding assay, Lyn SH3
Sequence of Lyn SH3 domain-GST fusion protein (P07948 62-122): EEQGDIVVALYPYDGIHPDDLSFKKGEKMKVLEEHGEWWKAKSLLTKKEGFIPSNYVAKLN
Method: as §2

[7] = molecular target: Fyn SH3 domain-GST fusion protein (Homo sapiens, UniProt P06241); test: Fluorescence polarization direct binding assay, Fyn SH3
Sequence of Fyn SH3 domain-GST fusion protein (P06241 81-142): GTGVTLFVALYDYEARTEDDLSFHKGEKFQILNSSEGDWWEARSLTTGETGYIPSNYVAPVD
Method: as §2

c-Src SH3^P133L = c-Src SH3^P133L (Gallus gallus, UniProt P00523, P133L); test: Fluorescence polarization direct binding assay, c-Src SH3^P133L; design: species or system chicken
Method: as §1

[8] = Sedimentation equilibrium analytical ultracentrifugation of aPP variants, monomer-n-mer fit (self-association); format: physicochemical
Method: Analytical ultracentrifugation experiments were performed using peptide solutions prepared in Tris.Cl buffer (25 mM Tris base, 50 mM NaCl, (pH 8.0)) at the appropriate concentrations (5 micromolar to 200 micromolar). Samples were then centrifuged to equilibrium at 25° C. at 42,000, 50,000, and 60,000 rpm. Data were collected with a 0.001 cm step size and successive scans were initiated at 2 h intervals. Samples were judged to have reached equilibrium when the radial concentration gradient remained unchanged over three successive scans using the Match module of Heteroanalysis software v1.1.19. The solvent density (ρ, rho) and partial specific volume ( ν, nu) were calculated using the Sedimentation Interpretation Program “Sednterp” software v1.08.
The data for each peptide (multiple concentrations at three speeds) was first fit globally to an equation describing the sedimentation of an ideal species of molecular weight Mn (Eq. 1) using Heteroanalysis software v1.1.19:
where C represents the concentration of the sedimenting species at distances r and r0 cm from the center of rotation; ν (nu) is the partial specific volume of the sedimenting species in cc/g; ρ (rho) is the density of the supporting buffer in g/cc; ω (omega) is the angular velocity of the rotor (radians/s); Mn is the “molar” molecular weight of sedimenting species (g/mol); R is the universal gas constant (8.315×10^7 ergs K^−1 mol^−1) and T is the temperature in degrees Kelvin.
In order to quantify this self-association, the data for each peptide was next fit globally to a monomer-n-mer equilibrium model using Eq. 2:
where n is the stoichiometry of the self-associated complex. Errors were calculated for n and lnKA using f-statistics to two standard deviations.
Samples were prepared in PBS buffer and centrifuged at speeds of 42,000 (41), 50,000 (42), or 60,000 RPM (43) at 25° C. Experimental data are shown as points; lines indicate the best fit to a monomer-n-mer model described by Eq. 2.

[9] = pH- and temperature-dependent; read-out: equilibrium dissociation constant (Kd) of the aPP dimer; cited from earlier work

## GPSQPTAPGDDASPEDLIRFYDNLQQYLNVVTRHRY [aPP^Y7AP13SV14P]
[1]; 5° C.
  n (monomer-n-mer fit, Eq. 2): 2.5
  % monomer: 74%
  ln KA (m): 25.7 (25.3, 26.0)
[1]; 10° C.
  % monomer: 82%
  ln KA (m): 25.3 (25.0, 25.5)
[1]; 15° C.
  % monomer: 84%
  ln KA (m): 25.6 (25.4, 25.8)
[1]; 20° C.
  % monomer: 90%
  ln KA (m): 25.0 (24.8, 25.2)
[1]; 25° C.
  KD (tetramer, monomer/dimer/tetramer model): 6.8×10^−12 M^3
  % monomer: 90%
  ln KA (m): 25.7 (25.4, 26.0)
[1]; 25° C., at 30 micromolar
  % dimer: 9%
  % tetramer: 1%
[1]; 30° C.
  n (monomer-n-mer fit, Eq. 2): 3.6
  % monomer: 98%
  ln KA (m): 24.4 (24.2, 24.5)
[2]; Tris buffer pH 8.0, 25° C.
  CD ellipticity at 222 nm: -9700 deg cm^2 dmol^−1
[2]; temperature-dependent CD at 222 nm
  Tm (cooperative unfolding transition): 20 °C

## CC(C)C[C@H](NC(=O)[C@@H]1CCCN1C(=O)[C@@H]1CCCN1C(=O)[C@H](C)NC(=O)CNC(=O)CNC(=O)[C@@H](N)CSCC(=O)Nc1ccc2c(c1)C(=O)OC21c2ccc(O)cc2Oc2cc(O)ccc21)C(=O)N1CCC[C@H]1C(=O)N1CCC[C@H]1C(=O)N[C@@H](CCCNC(=N)N)C(=O)N[C@@H](CC(N)=O)C(=O)N[C@@H](CCCNC(=N)N)C(=O)N1CCC[C@H]1C(=O)N[C@@H](CCCNC(=N)N)C(N)=O [^Flu1]
[3]
  Kd: 1600 ± 200 nM
[4]
  Kd: 1500 ± 100 nM
[5]
  Kd: > 20 µM
[6]
  Kd: 2000 ± 300 nM
[7]
  Kd: 1400 ± 200 nM
c-Src SH3^P133L
  Kd: > 100 µM

## avian pancreatic polypeptide (GPSQPTYPGDDAPVEDLIRFYDNLQQYLNVVTRHRY; ends and bridges not checked) [aPP, purchased from American Peptide Company, reference compound]
[8]; 30 μM peptide, 25° C.
  % monomer at 30 μM: 23%
[8]; 30 micromolar
  % in the dimer state at 30 micromolar: > 94%
[8]; monomer-dimer, 25° C.
  lnKA when n = 2: when n = 2 12.41
[8]; monomer-n-mer fit, 25° C.
  n (stoichiometry of the self-associated complex): 1.92
[8]; n = 2, 25° C., calculated from ln KA
  Kd (self-association, dimer): 4.1 µM
[9]
  Kd: 0.4 to 5000 nM
